From patent publication US20120190004A1, “METHODS AND COMPOSITIONS FOR THE CRYOPRESERVATION OF DUCKWEED” (Biolex Therapeutics, Inc., priority 2009, published 2012)

What was measured:
Experiment in all cases: Cryopreservation success rate after dormancy induction in sugar-supplemented medium
[1] = test system: L. sp. Branson; assay type: in vivo; conditions: for Cryopreservation success, in words: summary of Tables 6 and 7
Procedure: (§1) Lemna minor duckweed plants were cultured on Schenk and Hildebrandt media with 20 mg/ml sucrose at an aerial temperature of between 21° C. and 30° C. and light levels ranging from 200 μM·M^−2·sec^−1 to 450 μM·M^−2·sec^−1 for 1 day up to 1 year. Three frond colonies (each frond colony comprised one or more daughter fronds attached to the mother frond) were aseptically transferred into a 2.0-mL cryovial containing a 900 μL solution of Schenk and Hildebrandt media, […] step. The frond colonies were incubated in this sugar solution for 21-30 days. Each 24-hour photoperiod was comprised of fluctuations in temperature and light levels. Specifically, the daytime hours consisted of culturing the duckweed frond colony at an aerial temperature of 10° C. with a light level of about 25 μM·M^−2·sec^−1 to about 50 μM·M^−2·sec^−1 for a duration of 3 hours, followed by an aerial temperature of 15° C. at a light level of about 25 μM·M^−2·sec^−1 to about 75 μM·M^−2·sec^−1 for a duration of 6 hours, and an aerial temperature of 10° C. with a light level of about 25 μM^−2·sec^−1 to about 50 μM·M^−2·sec^−1 for a duration of 3 hours. During the nighttime hours of the 24-hour photoperiod, the duckweed frond colonies were cultured at an aerial temperature of 4° C. in the absence of light for a duration of 12 hours.
(§2) The duckweed frond colonies were dehydrated in a laminar flow hood in 900 μL of a cryoprotective solution, comprising 1.92 M DMSO, […], 3.26 M glycerol, and 0.4 M sucrose at pH 5.8. The cryovials were incubated in this solution at 4° C. for 30 minutes to 2 hours in the absence of light. Following the incubation, the cryoprotective solution was removed and replaced with 900 μL of fresh cryoprotective solution.
(§3) The duckweed frond colonies were frozen in a slow rate freezer according to the following freezing protocol. The cryovials containing the duckweed frond colonies were held at 4° C. and the temperature was lowered to −4° C. at 1° C. per minute, to −40° C. at 25° C. per minute, and then raised to −12° C. at 10° C. per minute. The temperature was again lowered to −40° C. at 1° C. per minute, to −90° C. at 10° C. per minute, and then lowered to −150° C. at 10° C. per minute. Once frozen, the vials containing the frond colonies were transferred to the vapor phase of liquid nitrogen for storage.
(§4) After up to 17 months in storage, the frozen duckweed frond colonies were thawed and recovered as follows. The vials containing the frozen duckweed frond colonies were transferred from the liquid nitrogen storage tank to a laminar flow hood and were thawed at room temperature for approximately ten minutes. The cryoprotective solution was removed and replaced with 900 μL of Schenk and Hildebrandt medium, supplemented with 1.2 M sucrose, followed by a ten minute incubation at room temperature. The 1.2 M sucrose was subsequently diluted by a series of five dilutions whereby 450 μL of the 1.2 M sucrose solution was removed and replaced with 450 μL of Schenk and Hildebrandt medium supplemented with 20 mg/ml sucrose. Following the serial dilutions, the frond colonies were transferred to a petri dish with Schenk and Hildebrandt medium, supplemented with 10 mg/ml sucrose and 1% (weight/volume) agar. The duckweed frond colonies were cultured at an aerial temperature of between 21° C. and 30° C. with light levels ranging from about 20 μM·M^−2·sec^−1 to about 100 μM·M^−2·sec^−1 for 7-14 days prior to calculating the success rate of the cryopreservation procedure.
(§5) The cryopreservation success rate was calculated by the total number of visible daughter fronds (or daughter fronds with viable tissue) to survive the freezing process and successfully reproduce new daughter fronds as a percentage of the total number of visible daughter fronds that were frozen. Viability of tissue or of daughter fronds was assessed by the presence of green tissue and the ability of these fronds or frond tissues to reproduce and generate new daughter fronds. […]

[2] = test system: L. minor; assay type: in vivo, Lemna minor; conditions: for Cryopreservation success rate: single sugars 90 mg/ml unless the label says 20 mg/ml, six sugar combo 15 mg/ml each; for Cryopreservation success, in words: summary of Tables 6 and 7
Procedure: (§6) Lemna minor duckweed plants were cultured on Schenk and Hildebrandt media with 20 mg/ml sucrose at an aerial temperature of between 21° C. and 30° C. and light levels ranging from […] for 1 day up to 1 year. Three frond colonies (each frond colony comprised one or more daughter fronds attached to the mother frond) were aseptically transferred into a 2.0-mL cryovial containing a 900 μL solution of Schenk and Hildebrandt media, supplemented with 15 mg/ml of each D-trehalose dihydrate, sucrose, D-sorbitol, D-raffinose pentahydrate, D-glucose, and D-mannitol for the dormancy-induction step. The frond colonies were incubated in this sugar solution for 21-30 days. Each 24-hour photoperiod was comprised of fluctuations in temperature and light levels. Specifically, the daytime hours consisted of culturing the duckweed frond colony at an aerial temperature of 10° C. with a light level of about 25 μM·M^−2·sec^−1 to about 50 μM·M^−2·sec^−1 for a duration of 3 hours, followed by an aerial temperature of 15° C. at a light level of about 25 μM·M^−2·sec^−1 to about 75 μM·M^−2·sec^−1 for a duration of 6 hours, and an aerial temperature of 10° C. with a light level of about 25 μM^−2·sec^−1 to about 50 μM·M^−2·sec^−1 for a duration of 3 hours. During the nighttime hours of the 24-hour photoperiod, the duckweed frond colonies were cultured at an aerial temperature of 4° C. in the absence of light for a duration of 12 hours.
as §2, §3, §4
(§7) The cryopreservation success rate was calculated by the total number of visible daughter fronds (or daughter fronds with viable tissue) to survive the freezing process and successfully reproduce new daughter fronds as a percentage of the total number of visible daughter fronds that were frozen. […]

[3] = test system: Sp. polyrrhiza; assay type: in vivo, Spirodela polyrrhiza; conditions: for Cryopreservation success rate: single sugars 90 mg/ml unless the label says 20 mg/ml, six sugar combo 15 mg/ml each; for Cryopreservation success, in words: summary of Tables 6 and 7
[4] = test system: L. yungensis; assay type: in vivo, Lemna yungensis; conditions: for Cryopreservation success, number of surviving fronds: sugar 90 mg/ml; for Cryopreservation success, in words: summary of Tables 6 and 7; for Cryopreservation success rate: single sugars 90 mg/ml unless the label says 20 mg/ml, six sugar combo 15 mg/ml each
[5] = test system: BAP01-B2-230 line; assay type: in vivo, Lemna minor; conditions: sugars at two concentrations: 90 mg/ml (1X) and 270 mg/ml (3X)
Procedure: as §6, §2, §3, §4, §7

[6] = test system: IFN61-B2-101 line; assay type: in vivo, Lemna minor; conditions: sugars at two concentrations: 90 mg/ml (1X) and 270 mg/ml (3X)
Procedure: as §1, §2, §3, §4, §5

[7] = test system: L. minor; assay type: in vivo, Lemna minor; conditions: sugars at two concentrations: 90 mg/ml (1X) and 270 mg/ml (3X)
[8] = first set of experiments, single sugars 90 mg/ml unless the label says 20 mg/ml, six sugar combo 15 mg/ml each, in Schenk and Hildebrandt media during dormancy induction
[9] = second set of experiments, single sugars 90 mg/ml unless the label says 20 mg/ml, six sugar combo 15 mg/ml each

| SMILES | Cryopreservation success rate [1, 8] | Cryopreservation success rate [1, 9] | Cryopreservation success, in words [1] | Cryopreservation success rate ([2]; first set of experiments) | Cryopreservation success rate ([2]; second set of experiments) | Cryopreservation success, in words [2] | Cryopreservation success rate ([3]; first set of experiments) | Cryopreservation success rate ([3]; second set of experiments) | Cryopreservation success, in words [3] | Cryopreservation success, number of surviving fronds ([4]; first set of experiments) | Cryopreservation success, number of surviving fronds ([4]; second set of experiments) | Cryopreservation success, in words [4] | Cryopreservation success rate ([4]; first set of experiments) | Cryopreservation success rate ([4]; second set of experiments) | further results |
| --- | --- | --- | --- | --- | --- | --- | --- | --- | --- | --- | --- | --- | --- | --- | --- |
| OC[C@@H](O)[C@@H](O)[C@H](O)[C@H](O)CO [Mannitol, mannitol] | 33.3% (6/18) | 28.6% (4/14) | low relative to the other sugars that were tested | 0% (0/8) | 0% (0/14) | ineffective | 50% (4/8) | 57.1% (4/7) | successfully cryopreserved | 1 frond | 2 fronds | successfully cryopreserved |  |  |  |
| OC[C@H]1O[C@H](OC[C@H]2O[C@H](O[C@]3(CO)O[C@H](CO)[C@@H](O)[C@@H]3O)[C@H](O)[C@@H](O)[C@@H]2O)[C@H](O)[C@@H](O)[C@H]1O [Raffinose, raffinose] | 100% (23/23) | 100% (17/17) |  | 100% (16/16) | 92.9% (13/14) | prefers | 0% (0/6) | 0% (0/12) |  |  |  |  | 0% | 0% | Cryopreservation success rate ([1]; sugars at two concentrations: 90 mg/ml (1X) and 270 mg/ml (3X), listed as Raffinose 1X): 100% (20/20); Cryopreservation success rate ([1]; sugars at two concentrations: 90 mg/ml (1X) and 270 mg/ml (3X), listed as Raffinose 3X): 0% (0/12); Cryopreservation success rate ([5]; listed as Raffinose 1X): 96.2% (25/26); Cryopreservation success rate ([5]; listed as Raffinose 3X): 0% (0/14); Cryopreservation success rate ([6]; listed as Raffinose 1X): 100%; Cryopreservation success rate ([6]; listed as Raffinose 3X): 26.7%; Cryopreservation success rate ([7]; listed as Raffinose 1X): 96% (24/25); Cryopreservation success rate ([7]; listed as Raffinose 3X): 0% (0/19) |
| OC[C@H]1O[C@H](O[C@H]2O[C@H](CO)[C@@H](O)[C@H](O)[C@H]2O)[C@H](O)[C@@H](O)[C@@H]1O [Trehalose, trehalose] | 100% (20/20) | 100% (16/16) |  | 100% (17/17) | 85.7% (12/14) | prefers | 0% (0/4) | 0% (0/15) |  |  |  |  | 0% | 0% | Cryopreservation success rate ([1]; sugars at two concentrations: 90 mg/ml (1X) and 270 mg/ml (3X), listed as Trehalose 1X): 100% (17/17); Cryopreservation success rate ([1]; sugars at two concentrations: 90 mg/ml (1X) and 270 mg/ml (3X), listed as Trehalose 3X): 0% (0/17); Cryopreservation success rate ([5]; listed as Trehalose 1X): 85% (17/20); Cryopreservation success rate ([5]; listed as Trehalose 3X): 0% (0/12); Cryopreservation success rate ([6]; listed as Trehalose 1X): 93.8%; Cryopreservation success rate ([6]; listed as Trehalose 3X): 7.1%; Cryopreservation success rate ([7]; listed as Trehalose 1X): 100% (15/15); Cryopreservation success rate ([7]; listed as Trehalose 3X): 0% (0/12) |
| O=C[C@H](O)[C@@H](O)[C@H](O)[C@H](O)CO [Glucose, glucose] | 88.5% (23/26) | 53.3% (8/15) |  | 5.9% (1/17) | 53.9% (7/13) | lower cryopreservation success rates | 0% (0/4) | 0% (0/4) |  |  |  |  | 0% | 0% | Cryopreservation success rate ([1]; sugars at two concentrations: 90 mg/ml (1X) and 270 mg/ml (3X), listed as Glucose 1X): 0% (0/11); Cryopreservation success rate ([1]; sugars at two concentrations: 90 mg/ml (1X) and 270 mg/ml (3X), listed as Glucose 3X): 0% (0/15); Cryopreservation success rate ([5]; listed as Glucose 1X): 0% (0/14); Cryopreservation success rate ([5]; listed as Glucose 3X): 0% (0/13); Cryopreservation success rate ([6]; listed as Glucose 1X): 5.3%; Cryopreservation success rate ([6]; listed as Glucose 3X): 0%; Cryopreservation success rate ([7]; listed as Glucose 1X): 0% (0/12); Cryopreservation success rate ([7]; listed as Glucose 3X): 0% (0/16) |
| OC[C@@H](O)[C@@H](O)[C@H](O)[C@@H](O)CO [Sorbitol, sorbitol] | 27.3% (6/22) | 16.7% (2/12) | low relative to the other sugars that were tested | 0% (0/13) | 0% (0/4) | ineffective | 12.5% (1/8) | 25% (1/4) | successfully cryopreserved | 1 frond | 1 frond | successfully cryopreserved |  |  |  |
